Consider 29 compounds from ChEMBL document CHEMBL5724709, “EUbOPEN Chemogenomics Library - IncuCyte” (2024).

Format in all cases: toxicity, cell-based
In series [1] the test system is HEK-293T. Briefly: Incucyte cell viability with HEK293T. As to conditions: human, 24 h, 10 µM, compound concentration 10 uM.
Series [2] relates to Fibroblast. The series can be described thus: Incucyte cell viability with human fibroblast. The note with it: 24 h, 10 µM, compound concentration 10 uM.
For series [3], the system named is U2OS. Briefly: Incucyte cell viability with U2OS. The note with it: human, 24 h, 10 µM, compound concentration 10 uM.

Structures are written as SMILES. Square brackets hold non-standard residues; d marks the D form. Peptide text beside a SMILES is read from it.
Note: unitless GR value; below 1 slowed growth and below 0 cell loss.

For `CN1CCc2c(n(Cc3ccc(C(=O)NO)cc3)c3ccccc23)C1`, the “Growth Rate” value is recorded as 0.89 in series [1] (replicate number 1); 1 in series [1] (replicate number 2); 1 in series [2] (replicate number 1); 0.54 in series [2] (replicate number 2); 0.34 in series [3] (replicate number 1); 1 in series [3] (replicate number 2).

With `O=C(NO)c1cccc(C(=O)NCCc2ccccc2)c1`, the “Growth Rate” value in series [1] (replicate number 1) is 0.83; in series [1] (replicate number 2), 0.99; in series [2] (replicate number 1), 1; in series [2] (replicate number 2) it was -0.07; in series [3] (replicate number 1) it was 0.02; in series [3] (replicate number 2) it was 0.85.

For the compound `O=C(NCC1(c2nc(-c3ccccc3)cs2)CCOCC1)c1cccc(-c2noc(C(F)(F)F)n2)c1`, the “Growth Rate” value in series [1] (replicate number 1) was 0.36; in series [1] (replicate number 2), 0.64; in series [2] (replicate number 1), 1; in series [2] (replicate number 2), 0.44; in series [3] (replicate number 1), 1.

With `CC(C)NCC(O)COC(Cn1c2ccccc2c2ccccc21)Cn1c2ccccc2c2ccccc21` (stereo not given), the “Growth Rate” value in series [1] (replicate number 1) was 1; in series [2] (replicate number 1) it was 1; in series [2] (replicate number 2), 0.03; in series [3] (replicate number 1) it was -0.53; in series [3] (replicate number 2) it was 1.

For the compound `CCC(=O)N1CCOc2c(cc(-c3cc(OC)cc(OC)c3)cc2C(=O)N[C@H]2CCCN(C)C2)C1`, the “Growth Rate” value in series [1] (replicate number 1) was 0.39; in series [1] (replicate number 2), 0.7; in series [2] (replicate number 1), 0.84; in series [2] (replicate number 2), 0.98; in series [3] (replicate number 1), 0.42; in series [3] (replicate number 2) it was 1.

For the compound `Nc1ccc(-c2cccs2)cc1NC(=O)c1ccc2nc(N3CCNCC3)ccc2c1`, the “Growth Rate” value in series [1] (replicate number 1) is listed as 0.92; in series [1] (replicate number 2), 0.99; in series [2] (replicate number 1) it was 1; in series [3] (replicate number 1), 0.21; in series [3] (replicate number 2), 0.63.

`COc1cc2c(NCC3CCN(C)CC3)cc(-c3ccc(C)o3)nc2cc1OCCCN1CCCC1`: the “Growth Rate” value in series [1] (replicate number 1) was -0.36; in series [1] (replicate number 2), -0.29; in series [2] (replicate number 1), 0.34; in series [2] (replicate number 2), -0.3; in series [3] (replicate number 1), -0.64; in series [3] (replicate number 2), -0.51.

As to `CNC(=O)c1ccc(-c2cc3cccc(-c4nn(C5CCOCC5)c5c4CN(C(C)=O)CC5)c3cn2)cn1`, the “Growth Rate” value in series [1] (replicate number 1) was determined as 0.61; in series [1] (replicate number 2) it was 0.57; in series [2] (replicate number 1) it was 1; in series [3] (replicate number 1) it was 0.12; in series [3] (replicate number 2), 0.95.

Regarding `COc1nc(N)nc(Nc2cc(S(N)(=O)=O)ccc2N[C@@H](c2cccc3c2OC(F)(F)O3)c2ncccc2Cl)n1`, the “Growth Rate” value is given as 0.97 in series [1] (replicate number 1); 1 in series [1] (replicate number 2); 1 in series [2] (replicate number 1); 1 in series [3] (replicate number 1); 0.89 in series [3] (replicate number 2).

For the compound `Cc1cc(C)cc(Oc2ccc(CNC(=O)[C@H](C)N)cc2C)c1.Cl`, the “Growth Rate” value in series [1] (replicate number 1) is 0.84; in series [1] (replicate number 2) it was 0.89; in series [2] (replicate number 1) it was 1; in series [3] (replicate number 1), 0.69; in series [3] (replicate number 2) it was 1.

As to `O=C(NO)C(c1ccc(-c2ncc(C(F)(F)F)cn2)cc1)c1ccccc1F` (stereo not given), the “Growth Rate” value is reported as -0.14 in series [1] (replicate number 1); 0.69 in series [1] (replicate number 2); 0.37 in series [2] (replicate number 1); -0.57 in series [2] (replicate number 2); 0.6 in series [3] (replicate number 1); 0.81 in series [3] (replicate number 2).

As to `C=CC(=O)Nc1cccc(-c2c[nH]cc2CN(C)CCN)c1`, the “Growth Rate” value came out at 0.75 in series [1] (replicate number 1); 0.9 in series [1] (replicate number 2); 0.37 in series [2] (replicate number 1); 1 in series [2] (replicate number 2); 0.21 in series [3] (replicate number 1); 1 in series [3] (replicate number 2).

Consider `OC1CN=C2c3ccn([C@@H]4O[C@H]([C@H](O)c5ccc(Cl)cc5)[C@@H](O)[C@H]4O)c3N=CN21` (stereo not given in full), for which the “Growth Rate” value in series [1] (replicate number 1) is 1; in series [2] (replicate number 1) it was 1; in series [2] (replicate number 2), -0.38; in series [3] (replicate number 1) it was 1; in series [3] (replicate number 2) it was 0.79.

On to `CC(C)(C)c1ccc(CN(C(=O)CN(Cc2c(F)c(F)c(F)c(F)c2F)S(=O)(=O)c2ccc(F)cc2)c2ccc(C(=O)NO)cc2)cc1`, for which the “Growth Rate” value in series [1] (replicate number 1) is on record as 0.62; in series [1] (replicate number 2), 0.53; in series [2] (replicate number 1), 0.66; in series [2] (replicate number 2) it was -0.2; in series [3] (replicate number 1), 0.17; in series [3] (replicate number 2) it was 1.

In the case of `Cc1ccc(N2C(=O)/C(=C/C=C/c3ccco3)C(=O)NC2=S)cc1Cl`, the “Growth Rate” value in series [1] (replicate number 1) came to 0.94; in series [1] (replicate number 2), 1; in series [2] (replicate number 1) it was 0.45; in series [2] (replicate number 2), 1; in series [3] (replicate number 1), 1.

As to `O=C(NO)c1ccc(CN2CCCc3cc(Cl)ccc32)cc1`, the “Growth Rate” value was 0.69 in series [1] (replicate number 1); 0.85 in series [1] (replicate number 2); 0.78 in series [2] (replicate number 1); -0.22 in series [2] (replicate number 2); 0 in series [3] (replicate number 1); 0.79 in series [3] (replicate number 2).

For `CCCOC(=O)N1CCN(C(=O)c2ccc3c(Cl)cc(-c4ccc(C5(N)CC5)cc4)nc3c2)C[C@H]1C`, the “Growth Rate” value in series [1] (replicate number 1) is 0.01; in series [1] (replicate number 2), 0.3; in series [2] (replicate number 1), 1; in series [2] (replicate number 2) it was -0.86; in series [3] (replicate number 1) it was 0.52; in series [3] (replicate number 2) it was 1.

With `CCCCCCCCCCCCCCCCNNC(=O)c1cccs1`, the “Growth Rate” value turned out to be 0.8 in series [1] (replicate number 1); 1 in series [1] (replicate number 2); 0.8 in series [2] (replicate number 1); 0.19 in series [2] (replicate number 2); 0.83 in series [3] (replicate number 1); 1 in series [3] (replicate number 2).

On to `CNC(=O)Cn1cc(-c2ccc3c(c2)[C@H](F)C[C@]32NC(=O)N(CC(=O)N(Cc3ccc(F)cc3)[C@@H](C)C(F)(F)F)C2=O)cn1`, for which the “Growth Rate” value in series [1] (replicate number 1) is reported as -0.53; in series [1] (replicate number 2), 0.24; in series [2] (replicate number 1), 0.7; in series [2] (replicate number 2), -0.43; in series [3] (replicate number 1) it was -0.12; in series [3] (replicate number 2), 0.63.

As for `Cc1ccc(F)c2cc(C(=O)N[C@@H]3CCC[C@H](N4CC[C@H](N(C)S(C)(=O)=O)C4)C3)[nH]c12`, the “Growth Rate” value came to 0.35 in series [1] (replicate number 1); 0.62 in series [1] (replicate number 2); 1 in series [2] (replicate number 1); 1 in series [3] (replicate number 1); 0.67 in series [3] (replicate number 2).

For the compound `Cc1cc(-c2ccc3nc(C4CCOCC4)n(CCOC(F)(F)F)c3c2)cn(C)c1=O`, the “Growth Rate” value in series [1] (replicate number 1) was 0.62; in series [1] (replicate number 2), 0.67; in series [2] (replicate number 1) it was 0.36; in series [2] (replicate number 2), -0.06; in series [3] (replicate number 1), -0.23; in series [3] (replicate number 2), 0.68.

As to `Cc1ncsc1-c1ccc([C@H](C)NC(=O)[C@@H]2C[C@@H](O)CN2C(=O)[C@@H](NC(=O)CNC(=O)c2ccc(F)c(-c3ccc(N4C[C@@H](C)N(C)[C@@H](C)C4)c(NC(=O)c4c[nH]c(=O)cc4C(F)(F)F)c3)c2)C(C)(C)C)cc1`, the “Growth Rate” value in series [1] (replicate number 1) is given as 0.6; in series [1] (replicate number 2), 0.78; in series [2] (replicate number 1) it was -0.11; in series [2] (replicate number 2), 0.89; in series [3] (replicate number 1), 1; in series [3] (replicate number 2), 0.89.

Turning to `CN(C)CCCN(CC[C@H](N)C(=O)O)C[C@H]1O[C@@H](n2cnc3c(N)ncnc32)[C@H](O)[C@@H]1O.O=C(O)C(F)(F)F`, the “Growth Rate” value worked out at 0.85 in series [1] (replicate number 1); 0.98 in series [1] (replicate number 2); 0.74 in series [2] (replicate number 1); 0.03 in series [2] (replicate number 2); 1 in series [3] (replicate number 1).

In the case of `Cc1nc(F)ccc1-c1cc(Cn2ccn(C)c2=N)cc(C(=O)NCc2ccc(Cl)c(Cl)c2)c1.O=C(O)C(F)(F)F`, the “Growth Rate” value was 0.97 in series [1] (replicate number 1); 0.95 in series [1] (replicate number 2); 0.97 in series [2] (replicate number 1); 0.38 in series [2] (replicate number 2); 1 in series [3] (replicate number 1).

With `COc1cccc(OC)c1S(=O)(=O)Nc1noc2cc(Cn3cccn3)cc(OC)c12`, the “Growth Rate” value in series [1] (replicate number 1) stood at 0.71; in series [1] (replicate number 2), 0.55; in series [2] (replicate number 1), 0.79; in series [2] (replicate number 2) it was 1; in series [3] (replicate number 1) it was 0.39; in series [3] (replicate number 2), 1.

For the compound `CCOCC1(COCC)CCC(c2n[nH]cc2CN(C)CCNC)CC1.Cl`, the “Growth Rate” value is on record as 0.61 in series [1] (replicate number 1); 0.63 in series [1] (replicate number 2); 1 in series [2] (replicate number 1); 0.32 in series [2] (replicate number 2); 0.95 in series [3] (replicate number 1).

For `O=C1Cc2cc(C(=O)N[C@@H]3C[C@H]4CC[C@@H](C3)N4S(=O)(=O)CC3CCN(CCCC(F)(F)F)CC3)c(Cl)cc2N1`, the “Growth Rate” value in series [1] (replicate number 1) is reported as 0.97; in series [1] (replicate number 2), 1; in series [2] (replicate number 1), 0.96; in series [2] (replicate number 2), 0.61; in series [3] (replicate number 1) it was 1.

With `CC(=O)N[C@@H](C)C(=O)N[C@@H](CCC(=O)O)C(=O)N[C@H](C(=O)N[C@@H](C=O)CC(=O)O)C(C)C` (Ac-AEV[dD]-aldehyde), the “Growth Rate” value in series [1] (replicate number 1) came to 0.78; in series [1] (replicate number 2), 1; in series [2] (replicate number 1), 0.31; in series [2] (replicate number 2), 0.14; in series [3] (replicate number 1) it was 0.88; in series [3] (replicate number 2) it was 0.76.

As to `CSCC[C@H](NC(=O)[C@H](CC(=O)O)NC(C)=O)C(=O)N[C@@H](CCC(N)=O)C(=O)N[C@H](C=O)CC(=O)O.O=C(O)C(F)(F)F` (Ac-DMQD-aldehyde), the “Growth Rate” value in series [1] (replicate number 1) was 1; in series [1] (replicate number 2), 0.97; in series [2] (replicate number 1), 0.25; in series [2] (replicate number 2), 1; in series [3] (replicate number 1) it was 1.
